For one molecule, GI50 and TGI results are on record in PubChem BioAssay (NCI).

Test systems include ACHN renal; HCT-116 colon; HOP-92 NSCLC; NCI-H23 lung; SK-MEL-2 melanoma; SK-MEL-28 melanoma; SN12C renal; SNB-75 CNS; SR leukemia; UO-31 renal.
Common to all, as to experiment: NCI-60 cell line screen, 48 h

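Briefly, cells in 96-well plates were exposed to five compound concentrations for 48 h, and endpoints were estimated by linear interpolation. GI50 = concentration required for 50% inhibition of growth. At the TGI there is no net growth.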

Turning to `CCc1cc2ncc(CN3CCN(c4ccc(C(=O)NC)nc4)CC3)cc2[nH]c1=O`, the GI50 is 78.3 µM in the experiment with ACHN renal; 59.6 µM in the experiment on HCT-116 colon; 12.3 µM in the experiment on HOP-92 NSCLC; 53.5 µM with NCI-H23 lung; over 100 µM with SK-MEL-2 melanoma; over 100 µM with SK-MEL-28 melanoma. The GI50 with SN12C renal was 98.3 µM; with SNB-75 CNS, 18 µM; with SR leukemia, 11.5 µM; with UO-31 renal, 29.5 µM. Further, the TGI in the experiment with ACHN renal, in the experiment with HCT-116 colon, in the experiment on HOP-92 NSCLC, in the experiment with NCI-H23 lung, with SK-MEL-2 melanoma and in the experiment on SK-MEL-28 melanoma was over 100 µM each time. The TGI in the experiment on SN12C renal, with SNB-75 CNS, in the experiment on SR leukemia and in the experiment on UO-31 renal was over 100 µM in each case.
